The text below walks through data of patent US4782064A, “2-heteroaryl-alkyl-1H-benz[de]-isoquinoline-1,3(2H)-diones” (American Cyanamid Co., priority 1986, dated 1988).

The target of one assay is T1, thromboxane synthetase (Rattus norvegicus, UniProt P49430).
T1 construct: The platelets were isolated by centrifuging the PRP for 10 minutes; endogenous in cells; host or cells: washed platelets from arterial blood of Okamoto-Aoki spontaneously hypertensive rats (Taconic Farms, Germantown, N.Y.)
T1 sequence (P49430 1-533): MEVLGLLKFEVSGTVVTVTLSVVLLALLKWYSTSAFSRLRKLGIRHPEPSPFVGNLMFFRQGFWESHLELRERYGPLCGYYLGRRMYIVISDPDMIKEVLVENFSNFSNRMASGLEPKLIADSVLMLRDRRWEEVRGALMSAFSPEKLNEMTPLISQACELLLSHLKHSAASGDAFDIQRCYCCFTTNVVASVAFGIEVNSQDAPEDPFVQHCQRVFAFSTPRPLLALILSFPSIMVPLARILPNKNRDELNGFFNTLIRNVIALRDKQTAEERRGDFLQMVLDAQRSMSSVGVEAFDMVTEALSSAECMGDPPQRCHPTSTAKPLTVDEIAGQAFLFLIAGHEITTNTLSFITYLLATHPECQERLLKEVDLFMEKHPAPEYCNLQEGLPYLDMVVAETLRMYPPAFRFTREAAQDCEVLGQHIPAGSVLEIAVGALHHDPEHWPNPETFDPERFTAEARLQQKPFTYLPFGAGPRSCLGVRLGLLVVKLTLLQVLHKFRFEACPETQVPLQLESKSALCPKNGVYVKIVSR
In words: inhibition of thromboxane (TX) formation in platelets (TXB2 by radioimmunoassay). The format is cell-based, Okamoto-Aoki spontaneously hypertensive rats (SHR). The note with it: drug at 10^-4 M, 10 minutes at 37° C., washed SHR platelets, TXB2 RIA. As for the experimental part: From Okamoto-Aoki spontaneously hypertensive rats (SHR) (Taconic Farms, Germantown, N.Y.) between 19 and 24 weeks in age, under urethan anesthesia, […] of arterial blood was collected in one ml of 3.2% sodium citrate a polystyrene tube. The blood was diluted with 3 ml cold saline and centrifuged at room temperature for 15 minutes at 460×g. The platelet rich plasma (PRP) was separated. The platelets were isolated by centrifuging the PRP for 10 minutes at 1060×g nd were washed in 4 ml cold oxygenated Krebs phosphate buffer, pH 7.4. The chilled platelets recovered from centrifuging at 800×g for 10 minutes were resuspended in oxygenated Krebs phosphate buffer and diluted to contain 4.5-6.0×10^4 platelets/μl. The inhibition of thromboxane (TX) formation was studied by determining the concentration of thromboxane B2 (TXB2), the stable hydrolysis product of TXA2. Assay samples, prepared on ice, contained 200 μl platelet suspension, 50 μl saline, and 50 μl vehicle or drug under study at a concentration of 10^-4 M (with OKY-1581, UK-3724801, 1-benzylimidazole, and/or indometha standards). The samples were incubated for 10 minutes at 37° C. in a metabolic shaker. The reaction was terminated by immersing the tubes in an ice bath and adding 50 μl of 0.5M citric acid. The samples were centrifuged for 10 minutes in a refrigerated centrifuge and the supernatants thus obtained were decanted and stored at -20° C. The TXB2 content for each sample was determined by a direct radioimmunoassay (RIA) utilizing a TXB2 specific RIA kit purchased from New England Nuclear, Boston, Mass. and results expressed as pg TXB2 formed minute^-1 sample^-1, from which the percent inhibition of TXB2 formation was calculated.

In assay [1] the test system is spontaneously hypertensive rats. In words: hypotensive activity in spontaneously hypertensive rats (mean arterial blood pressure). The assay is classed as in vivo, spontaneously hypertensive rats of the Okamoto strain. The note with it: by gavage, 100 mg/kg or less, two doses 24 hours apart, measured 28 hours after the initial dose; starting average MABP 160±1.5 mm; number of rats in parentheses. As for the experimental part: The novel compounds of the present invention are also active hypotensive agents and were tested for hypotensive activity by the method of P. S. Chan and D. Poorvin, Clinical and Experimental Hypertension, 1 (6), 817-830 (1979). Male, 16 week old, spontaneously hypertensive rats of the Okamoto strain, from Taconic Farms, Germantown, N.Y. having an average mean arterial blood pressure of 160±1.5 mm of mercury were used in the test. One to 3 rats were used per test compound. The rats were dosed by gavage with a test compound, suspended in 2% pre-boiled starch at a concentration of 50 mg/ml, at a dose of 100 mg/kg of body weight or less, with 0.9% sodium chloride loading at a dose of 25 ml/kg of body weight. A second identical dose of the test compound, without sodium chloride loading was given 24 hours later. At 28 hours after the initial dose, the mean arterial blood pressure (MABP) was measured by the method of Chan and Poorvir vide supra. The procedure was repeated in a second and third rat when necessary as specified in the referenced method.

Another assay deals with ischemic myocardium. The note with it: canines; cited from earlier work.
The subject of assay [2] is coronary arteries of guinea pigs and rabbits. The note with it: cited from earlier work.

Each structure is given as a SMILES string. Where a name gives a salt, the structure may show the parent alone.

The term inhibition denotes the drop in the measured response relative to a control, in per cent. The compound `O=C1c2cccc3c(Cl)ccc(c23)C(=O)N1CCCCn1ccnc1` [6-Chloro-2-[4-(1H-imidazol-1-yl)butyl]-1H-benz[de]isoquinoline-1,3(2H)-dione monohydrochloride] gave an inhibition at 100 µM against thromboxane synthetase of 96%.
On thromboxane synthetase, `Nc1ccc2c3c(cccc13)C(=O)N(CCCCn1ccnc1)C2=O` [6-Amino-2-[4-(1 --H--imidazol-1-yl)butyl]-1 --H--benz[de]isoquinoline-1,3-(2 --H)--dione dihydrochloride] showed an inhibition at 100 µM of 96%. In addition, the “MABP/mm Hg (no. of rats)” value in assay [1] is on record as 115 mm Hg.
Take `O=C1c2cccc3cc([N+](=O)[O-])cc(c23)C(=O)N1CCCCc1cccnc1` [5-nitro-2-[4-(3-pyridinyl)butyl]-1 --H--benz[de]isoquinoline-1,3(2 --H)--dione]: the inhibition at 100 µM against thromboxane synthetase is 94%.
In the case of `CC(CN1C(=O)c2cccc3cc([N+](=O)[O-])cc(c23)C1=O)Cn1ccnc1` (stereo not shown) [2-[3-(1 --H--imidazol-1-yl)-2-methyl-propyl]-5-nitro-1 --H--benz[de]-isoquinoline-1,3(2 --H)--dione], the inhibition at 100 µM on thromboxane synthetase was 100%.
Turning to `O=C1c2cccc3cc([N+](=O)[O-])cc(c23)C(=O)N1CCCn1ccnc1-c1ccccc1` [5-Nitro-2-[3-(2-phenyl-1 --H--imidazol-1-yl)propyl]-1 --H-- benz[de]-isoquinoline-1,3(2 --H)--dione], on thromboxane synthetase, at 100 µM the inhibition was 89%.
Take `O=C1c2cccc3cccc(c23)C(=O)N1CCCn1ccnc1` [2-[3(1 --H--imidazol-1-yl)propyl]-1 --H--benz[de]isoquinoline-1,3(2 --H)--dione]: the inhibition at 100 µM on thromboxane synthetase was found to be 89%. In assay [1], the “MABP/mm Hg (no. of rats)” value was 103 mm Hg.
In turn, `O=C1c2cccc3cc([N+](=O)[O-])cc(c23)C(=O)N1CCCCn1ccnc1` [2-[4-(1H-Imidazol-1-yl)butyl]-5-nitro-1H-benz[de]isoquinoline-1,3(2H)-dione] had an inhibition at 100 µM at thromboxane synthetase of 97%. The “MABP/mm Hg (no. of rats)” value in assay [1] is 123 mm Hg.
`O=C1c2cccc3cc([N+](=O)[O-])cc(c23)C(=O)N1CCCn1cncn1` [5-Nitro-2-[3-(1 --H--1,2,4-triazol-1-yl)propyl]-1 --H--benz[de]isoquinoline-1,3(2 --H)--dione] displayed an inhibition at 100 µM on thromboxane synthetase of 94%. In addition, in assay [1], the “MABP/mm Hg (no. of rats)” value is recorded as 127 mm Hg.
For the compound `O=C1c2cccc3cc([N+](=O)[O-])cc(c23)C(=O)N1CCc1cccnc1` [5-Nitro-2-[2-(3-pyridinyl)ethyl]-1 --H--benz[de]isoquinoline-1,3(2 --H)--dione], the inhibition at 100 µM against thromboxane synthetase was determined as 94%.
On to `O=C1c2cccc3c(Cl)ccc(c23)C(=O)N1CCCCCn1ccnc1` [6-Chloro-2-[5-(1 --H--imidazol-1-yl)pentyl]-1 --H--benz[de]isoquinoline-1,3-(2 --H)--dione], for which the inhibition at 100 µM against thromboxane synthetase amounted to 94%.
With `CCCCC[C@H](O)/C=C/[C@@H]1[C@H]2C/C(=C/CCCC(=O)O)O[C@H]2C[C@H]1O` [PGI2, Prostacyclin], in the assay on ischemic myocardium, the “effects on ischemic myocardium” value is recorded as “beneficial effects”.
On thromboxane synthetase, `O=C1c2cccc3cccc(c23)C(=O)N1CCCCCCCCn1ccnc1` [2-[8-(1H-Imidazol-1-yl)octyl]-1H-benz[de]isoquinoline-1,3(2H)-dione] came in with an inhibition at 100 µM of 98%.
`O=C1c2cccc3cccc(c23)C(=O)N1CCCCn1ccnc1` [2-[4-(1H-Imidazol-1-yl)butyl]-1H-benz-[de]isoquinoline-1,3(2H)-dione] showed an inhibition at 100 µM on thromboxane synthetase of 96%. In addition, in assay [1], the “MABP/mm Hg (no. of rats)” value is given as 106 mm Hg.
Regarding `CCCCC[C@H](O)/C=C/[C@H]1O[C@H]2C[C@H](O2)[C@@H]1C/C=C\CCCC(=O)O` [TXA2, thromboxane A2], the “effect of injection into coronary arteries” value in assay [2] is “causes myocardial ischemia and subendocardial necrosis”.
`O=C1c2cccc3c(Cl)ccc(c23)C(=O)N1CCCn1ccnc1` [6-Chloro-2-[3(1 --H--imidazol-1-yl)-propyl]-1 --H--benz[de]isoquinoline-1,3(2 --H)--dione monohydrochloride]: 100 µM produced 95% inhibition against thromboxane synthetase.
`O=C1c2cccc3cccc(c23)C(=O)N1CCCCc1cccnc1` [2-[4-(3-pyridinyl)butyl]-1 --H--benz[de]isoquinoline-1,3(2 --H)--dione] showed an inhibition at 100 µM at thromboxane synthetase of 98%. The “MABP/mm Hg (no. of rats)” value in assay [1] came to 137 mm Hg.
With `Cc1cn(CCCN2C(=O)c3cccc4cccc(c34)C2=O)cn1` [2-[3-(4-methyl-1 --H--imidazol-1-yl)-propyl]-1 --H--benz[de]isoquinoline-1,3(2 --H)--dione], on thromboxane synthetase, the inhibition at 100 µM stood at 98%.
Consider `O=C1c2cccc3cccc(c23)C(=O)N1C(CCn1ccnc1)c1ccccc1` (stereo not shown) [2-[3-(1 --H--imidazol-1-yl)-1-phenyl-propyl]-1 --H--benz[de]isoquinoline-1,3(2 -- H)--dione], for which at 100 µM the inhibition on thromboxane synthetase was 97%.
`CC(CCN1C(=O)c2cccc3cccc(c23)C1=O)n1ccnc1` (stereo not shown) [2-[3-(1 --H--imidazol-1-yl)butyl]-1 --H--benz[de]isoquinoline-1,3(2 --H)--dione] displayed an inhibition at 100 µM on thromboxane synthetase of 97%. The “MABP/mm Hg (no. of rats)” value in assay [1] is on record as 120 mm Hg.
On thromboxane synthetase, `CC(CCN1C(=O)c2cccc3cc([N+](=O)[O-])cc(c23)C1=O)n1ccnc1` (stereo not shown) [2-[3-(1 --H--imidazol-1-yl)butyl]-5-nitro-1 --H--benz[de]isoquinoline-1,3(2 --H)--dione] had an inhibition at 100 µM of 100%.
For the compound `O=C1c2cccc3cc([N+](=O)[O-])cc(c23)C(=O)N1CCCCCn1ccnc1` [2-[5-(1 --H--imidazol-1-yl)pentyl)-5-nitro-1 --H--benz[de]isoquinoline-1,3(2 --H)--dione], testing at 100 µM at thromboxane synthetase gave an inhibition of 98%.
With `O=C1c2cccc3cccc(c23)C(=O)N1CCCn1cncn1` [2-[3-(1 --H--1,2,4-triazol-1-yl)-propyl]-1 --H--benz[de]isoquinoline-1,3(2 --H)--dione], the inhibition at 100 µM against thromboxane synthetase worked out at 96%.
Regarding `CC(CN1C(=O)c2cccc3cccc(c23)C1=O)Cn1ccnc1` (stereo not shown) [2-[3-(1 --H--imidazol-1-yl)-2-methyl-propyl]-1 --H--benz[de]isoquinoline-1,3(2 --H)--dione], the inhibition at 100 µM on thromboxane synthetase came to 99%. The “MABP/mm Hg (no. of rats)” value in assay [1] came out at 134 mm Hg.
Compound `O=C1c2cccc3cc([N+](=O)[O-])cc(c23)C(=O)N1CCCn1ccnc1` [2-[3-(1 --H--imidazol-1-yl)propyl]-5-nitro-1 --H--benz[de]isoquinoline-1,3(2 --H)--dione] returned an inhibition at 100 µM at thromboxane synthetase of 100%. Besides, the “MABP/mm Hg (no. of rats)” value in assay [1] came out at 97 mm Hg.
`O=C1c2cccc3cccc(c23)C(=O)N1CCCCCn1ccnc1` [2-[5-(1 --H--imidazol-1-yl)pentyl)-1 --H--benz[de]isoquinoline-1,3(2 --H)--dione] came in with an inhibition at 100 µM on thromboxane synthetase of 100%.
